The text below walks through data of article PMC9579733 (Journal of Orthopaedic Translation, 2022).

The subject of one data set is MC3T3-E1 cells. The data set is described as follows: ALP activity analysis of MC3T3-E1 cells. Format: cell-based, mouse. Conditions: osteogenic differentiation medium, GPA 50 μM or SGPA 2.5-10 μM; 14 days (method) / 7 days (Fig. 3 legend).
For data set [1] the following is noted: ref [9],[10]; cited from earlier work.
In data set [2] the test system is farnesoid X receptor (FXR). The note with it: ref [11],[12]; cited from earlier work.
In the next data set the test system is FXR-RUNX2 signalling. The data set is described as follows: FXR-RUNX2 signalling in femur of OVX mice. The data set is classed as in vivo, C57BL/6J mice. The note with it: 20 mg/kg intravenously daily for 4 weeks, qRT-PCR, n = 6.
Data set [3] concerns osteoblast-specific factor 2 (OSF-2). The note with it: ref [21]; cited from earlier work.
Another data set relates to human and mouse OBs. The note with it: peptide screened by phage technology; ref [21]; cited from earlier work.

With `O=C(O)C1=CO[C@@H](O[C@@H]2O[C@H](CO)[C@@H](O)[C@H](O)[C@H]2O)[C@@H]2C(CO)=CC[C@H]12` [GPA, Geniposidic acid], the ALP activity entry in the data set on MC3T3-E1 cells is listed as “increased”. Also, in data set [1], the “tissue enrichment of GPA” value is “enriched in liver and kidney”. For the same compound, the “activation of farnesoid X receptor (FXR)” value in data set [2] is on record as “activated”. In the data set with FXR-RUNX2 signalling, the “mRNA expression of Bsep (a target gene for FXR) in femur” value is on record as “significantly increased” and the “mRNA expression of Runx2 in femur” value was “significantly increased”.
With Ser-Asp-Ser-Ser-Asp [SDSSD], in data set [3], the “affinity with osteoblast-specific factor 2 (OSF-2)” value was “high affinity”. Also, the “targeting of OBs” value in the data set on human and mouse OBs is “can specifically target both human and mouse OBs”.
